Measurements published in patent US20080152719A1, “Multiparticulate Pharmaceutical Form Comprising Pellets With a Matrix Which Influences the Delivery of a Modulatory Substance” (ROEHM GMBH, priority 2005, published 2008).

Assay: Effect of modulating substances on active ingredient delivery in vitro
Type: physicochemical
Conditions: for effect of modulating substance on rate of active ingredient delivery: in the multilayer pharmaceutical form; for activity of modulating substance in purified water versus phosphate buffer pH 6,8: in-vitro, purified water vs phosphate buffer pH 6,8 (Pharm. Eur.)
Text: In the human and animal gastrointestinal tract the concentration of ions may vary to a certain extent and thus may influence the activity of the modulating substances. For reproducible in-vivo results substances having a modulating effect, which are not or only a little influenced by varying ionic strength are preferred.

| SMILES | effect of modulating substance on rate of active ingredient delivery | activity of modulating substance in purified water versus phosphate buffer pH 6,8 |
| --- | --- | --- |
| CC(=O)[O-].[Na+] [Na acetate] | increase the rate of active ingredient delivery | – |
| O=C([O-])CC(O)(CC(=O)[O-])C(=O)[O-].[Na+].[Na+].[Na+] [Na citrate] | decrease the rate of active ingredient delivery | – |
| O=C(O)CC(O)(CC(=O)O)C(=O)O [citric acid] | increase the rate of active ingredient delivery | almost the same activity |
| [Cl-].[Na+] [sodium chloride] | decrease the rate of active ingredient delivery | almost the same activity |
| O=C([O-])CCC(=O)[O-].[Na+].[Na+] [sodium succinate] | increase the rate of active ingredient delivery | almost the same activity |
